Results from patent US12612380B2, “Non-lysosomal glucosylceramidase inhibitors and uses thereof” (ALECTOS THERAPEUTICS INC., priority 2019, dated 2026).

These compounds were tested against T1, GBA2 (Homo sapiens, UniProt Q9HCG7) (assay: Determination of IC50 values for inhibition of GBA2 in cell lysate). Conditions: cellular homogenate of HEK293T cells overexpressing human GBA2, 250 μM 4-methylumbelliferone-β-D glucopyranoside, pH 5.5, 37° C., GCase inhibitor present; read-out: GBA2 IC50.
T1 sequence (Q9HCG7 1-927): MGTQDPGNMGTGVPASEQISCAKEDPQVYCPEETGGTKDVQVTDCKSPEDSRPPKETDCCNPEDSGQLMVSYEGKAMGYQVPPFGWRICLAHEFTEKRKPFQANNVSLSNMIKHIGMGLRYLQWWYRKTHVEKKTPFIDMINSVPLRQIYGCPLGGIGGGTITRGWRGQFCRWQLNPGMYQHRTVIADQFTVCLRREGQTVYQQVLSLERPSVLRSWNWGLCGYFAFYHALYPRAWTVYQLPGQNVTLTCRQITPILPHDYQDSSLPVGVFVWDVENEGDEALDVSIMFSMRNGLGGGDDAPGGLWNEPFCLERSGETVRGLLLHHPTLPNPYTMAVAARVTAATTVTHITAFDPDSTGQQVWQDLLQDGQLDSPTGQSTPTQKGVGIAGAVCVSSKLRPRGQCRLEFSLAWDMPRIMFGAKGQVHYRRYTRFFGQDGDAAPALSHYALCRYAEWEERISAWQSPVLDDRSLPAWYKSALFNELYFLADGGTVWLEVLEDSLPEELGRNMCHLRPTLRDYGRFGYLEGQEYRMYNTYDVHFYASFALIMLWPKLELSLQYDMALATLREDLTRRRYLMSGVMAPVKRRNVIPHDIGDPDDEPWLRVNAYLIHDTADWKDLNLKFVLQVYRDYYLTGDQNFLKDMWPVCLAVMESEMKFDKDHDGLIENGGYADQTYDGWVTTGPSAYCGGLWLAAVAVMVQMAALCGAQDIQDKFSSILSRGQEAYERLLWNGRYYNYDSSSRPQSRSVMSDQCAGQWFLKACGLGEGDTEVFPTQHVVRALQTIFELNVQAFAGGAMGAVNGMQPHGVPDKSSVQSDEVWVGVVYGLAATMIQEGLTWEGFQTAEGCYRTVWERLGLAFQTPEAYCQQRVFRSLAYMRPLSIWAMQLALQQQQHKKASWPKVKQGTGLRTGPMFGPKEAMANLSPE
Type: biochemical
Parameters: host or cells: HEK293T (lentiviral transduction, puromycin selection); used as cellular homogenate
Source text: Assay for Determination of IC50 Values for Inhibition of GBA2 in Cell Lysate
Stable GBA2-expressing HEK293T cells were generated as follows. The PCR-amplified human GBA2 (GBA2 nucleotide accession number BC011363) using the following primers: Sense 5′---CGCAAATGGGCGGTAGGCGTG (SEQ ID NO:2)---3′ and antisense 5′---TAGTCAGCCATGGGGCGGAGA (SEQ ID NO:3)---3′) was cloned into pLenti-GIII-CMV by ABM Inc. The correctness of the construct was verified by sequencing. Lentivirus particles containing GBA2 in the pLenti-GIII-CMV plasmid were prepared using a third Generation Virus Packaging Mix (ABM cat #LV053-G074) in HEK293T cells and supplied as a virus particle suspension. The virus suspension was used for infection of HEK293T cells. Cell populations stably expressing human GBA2 were selected using puromycin for several weeks as determined by activity assays and western blot.
Various concentrations of test compounds were prepared in DMSO and then diluted into buffer consisting of 100 mM citric acid, 200 mM disodium phosphate with 1% v/v C10E6, pH 5.5. Cellular homogenates (0.25 mg/mL) of the stable HEK293T-overexpressing GBA2 cell line were preincubated for 10 min on ice with an inhibitor of GCase (20 μM (6R,7R,8S)-8-ethyl-4-azaspiro[2.5]octane-6,7-diol). The reaction solution consisted of 20 μL of 750 μM 4-methylumbelliferone-β-D glucopyranoside in 5% DMSO in the same buffer, 20 μL of GBA2-cellular homogenate pre-treated with (6R,7R,8S)-8-ethyl-4-azaspiro[2.5]octane-6,7-diol and 20 μL of various concentrations of test compound in 10% DMSO in the same buffer. The final concentrations in the reaction were 0.083 mg/mL GBA2-cellular homogenate, 250 μM 4-methylumbelliferone-β-D glucopyranoside, and various concentrations of inhibitor. The inhibitor and GBA2-cellular homogenate were preincubated together for 5 min at 37° C. The reaction was initiated by addition of substrate and allowed to proceed for 20 min at 37° C. to assess GBA2 activity. Reactions were stopped by the addition of an equal volume (60 μL) of 0.5 M NaOH, 0.3 M glycine, pH 10.5. Fluorescence was measured on a Biotek Synergy H4 plate reader at wavelengths of 365 nm for excitation and 450 nm for emission. Incubations without added enzyme or added inhibitors were used to define no enzyme activity and maximal enzyme activity, respectively. IC50 values were determined by fitting the data to a log[inhibitor concentration] versus response curve using GraphPad Prism. IC50 values were calculated as the concentration of inhibitor required to inhibit GBA2 activity by 50%.
With `C[C@@H]1[C@@H](O)[C@H](O)[C@@H](O)CN1CCCc1ccccc1` [Example 77, (2R,3R,4R,5S)-2-methyl-1-(3-phenylpropyl)piperidine-3,4,5-triol] the IC50 was < 100 nM. `C[C@@H]1[C@@H](O)[C@H](O)[C@@H](O)CN1CCCc1ccccc1F` [Example 78, (2R,3R,4R,5S)-1-(3-(2-fluorophenyl)propyl)-2-methylpiperidine-3,4,5-triol] was tested, and the IC50 was < 100 nM. For `C[C@@H]1[C@@H](O)[C@H](O)[C@@H](O)CN1CCCc1ccc(F)cc1` [Example 79, (2R,3R,4R,5S)-1-(3-(4-fluorophenyl)propyl)-2-methylpiperidine-3,4,5-triol], the IC50 was < 100 nM. In the case of `C[C@@H]1[C@@H](O)[C@H](O)[C@@H](O)CN1CCCc1cccs1` [Example 80, (2R,3R,4R,5S)-2-methyl-1-(3-(thiophen-2-yl)propyl)piperidine-3,4,5-triol], the IC50 is reported as < 100 nM. With `C[C@@H]1[C@@H](O)[C@H](O)[C@@H](O)CN1CCCc1ccsc1` [Example 81, (2R,3R,4R,5S)-2-methyl-1-(3-(thiophen-3-yl)propyl)piperidine-3,4,5-triol] the IC50 was < 100 nM. For `C[C@@H]1[C@@H](O)[C@H](O)[C@@H](O)CN1CC1CCN(c2ccccc2)CC1` [Example 82, (2R,3R,4R,5S)-2-methyl-1-((1-phenylpiperidin-4-yl)methyl)piperidine-3,4,5-triol], the IC50 was 100 to 1000 nM. For `C[C@@H]1[C@@H](O)[C@H](O)[C@@H](O)CN1CC1CCN(c2ccccc2F)CC1` [Example 83, (2R,3R,4R,5S)-1-((1-(2-fluorophenyl)piperidin-4-yl)methyl)-2-methylpiperidine-3,4,5-triol], the IC50 was < 100 nM. For `C[C@@H]1[C@@H](O)[C@H](O)[C@@H](O)CN1CC1CCN(c2cccc(F)c2)CC1` [Example 84, (2R,3R,4R,5S)-1-((1-(3-fluorophenyl)piperidin-4-yl)methyl)-2-methylpiperidine-3,4,5-triol], the IC50 was < 100 nM. For `C[C@@H]1[C@@H](O)[C@H](O)[C@@H](O)CN1CC1CCN(c2ccc(C(F)(F)F)cc2)CC1` [Example 86, (2R,3R,4R,5S)-2-methyl-1-((1-(4-(trifluoromethyl)phenyl)piperidin-4-yl)methyl)piperidine-3,4,5-triol], the IC50 was < 100 nM. `C[C@@H]1[C@@H](O)[C@H](O)[C@@H](O)CN1CC1(C)CCN(c2ccccc2)CC1` [Example 87, (2R,3R,4R,5S)-2-methyl-1-((4-methyl-1-phenylpiperidin-4-yl)methyl)piperidine-3,4,5-triol] gave an IC50 of 1000 to 25000 nM. `C[C@@H]1[C@@H](O)[C@H](O)[C@@H](O)CN1CC1(F)CCN(c2ccccc2)CC1` [Example 88, (2R,3R,4R,5S)-1-((4-fluoro-1-phenylpiperidin-4-yl)methyl)-2-methylpiperidine-3,4,5-triol] gave an IC50 of 100 to 1000 nM. With `C[C@@H]1[C@@H](O)[C@H](O)[C@@H](O)CN1CCC1CCN(c2ccccc2)CC1` [Example 89, (2R,3R,4R,5S)-2-methyl-1-(2-(1-phenylpiperidin-4-yl)ethyl)piperidine-3,4,5-triol] the IC50 was < 100 nM. `C[C@@H]1[C@@H](O)[C@H](O)[C@@H](O)CN1CC1CCN(c2cccnc2)CC1` [Example 90, (2R,3R,4R,5S)-2-methyl-1-((1-(pyridin-3-yl)piperidin-4-yl)methyl)piperidine-3,4,5-triol] gave an IC50 of 1000 to 25000 nM. `C[C@@H]1[C@@H](O)[C@H](O)[C@@H](O)CN1CC1CCN(CC(F)(F)F)CC1` [Example 91, (2R,3R,4R,5S)-2-methyl-1-((1-(2,2,2-trifluoroethyl)piperidin-4-yl)methyl)piperidine-3,4,5-triol] was tested, and the IC50 was 100 to 1000 nM. With `CC(C)C(=O)N1CCC(CN2C[C@H](O)[C@@H](O)[C@H](O)[C@H]2C)CC1` [Example 92, 2-methyl-1-(4-(((2R,3R,4R,5S)-3,4,5-trihydroxy-2-methylpiperidin-1-yl)methyl)piperidin-1-yl)propan-1-one] the IC50 was 1000 to 25000 nM. For `C[C@@H]1[C@@H](O)[C@H](O)[C@@H](O)CN1CC1CCN(C(=O)C(C)(C)C)CC1` [Example 93, 2,2-dimethyl-1-(4-(((2R,3R,4R,5S)-3,4,5-trihydroxy-2-methylpiperidin-1-yl)methyl)piperidin-1-yl)propan-1-one], the IC50 was 100 to 1000 nM.
